# Target: Mitotic checkpoint serine/threonine-protein kinase BUB1 (Homo sapiens, UniProt O43683)
# Experiment: To this end, 100-fold concentrated compound solutions (in DMSO) were previously prepared by serial dilution (1:3.4) of 2 mM stocks in a clear low volume 384-well source microtiter plate (Greiner Bio-One, Frickenhausen, Germany), from which 50 nl of compounds were transferred into a black low volume test microtiter plate from the same supplier. […] The resulting mixture (5 μl final volume) was incubated at 22° C. during 60 min., and the reaction was stopped by the addition of 5 μl of an aqueous EDTA-solution (50 mM EDTA, in 100 mM HEPES pH 7.5 and 0.2% (w/v) bovine serum albumin) which also contained the TR-FRET detection reagents (0.2 μM streptavidin-XL665 [Cisbio Bioassays, Codolet, France] and 1 nM anti-phosho-Serine antibody [Merck Millipore, cat. #35-001] and 0.4 nM LANCE EU-W1024 labeled anti-mouse IgG antibody [Perkin-Elmer, product no. AD0077, alternatively a Terbium-cryptate-labeled anti-mouse IgG antibody from Cisbio Bioassays can be used]). The stopped reaction mixture was further incubated 1 h at 22° C. in order to allow the formation of complexes between peptides and detection reagents. Subsequently, the amount of product was evaluated by measurement of the resonance energy transfer from the Eu-chelate-antlbody complex recognizing the Phosphoserlne residue to the streptavidin-XL665 bound to the biotin moiety of the peptide. […] IC50 values were calculated by fitting the normalized inhibition data to a 4-parameter logistic equation (Minimum, Maximum, IC50, Hill; Y=Max+(Min−Max)/(1+(X/IC50)Hill)) using a Bayer-proprietary analysis software.
# Chain of Mitotic checkpoint serine/threonine-protein kinase BUB1 (O43683 whole entry): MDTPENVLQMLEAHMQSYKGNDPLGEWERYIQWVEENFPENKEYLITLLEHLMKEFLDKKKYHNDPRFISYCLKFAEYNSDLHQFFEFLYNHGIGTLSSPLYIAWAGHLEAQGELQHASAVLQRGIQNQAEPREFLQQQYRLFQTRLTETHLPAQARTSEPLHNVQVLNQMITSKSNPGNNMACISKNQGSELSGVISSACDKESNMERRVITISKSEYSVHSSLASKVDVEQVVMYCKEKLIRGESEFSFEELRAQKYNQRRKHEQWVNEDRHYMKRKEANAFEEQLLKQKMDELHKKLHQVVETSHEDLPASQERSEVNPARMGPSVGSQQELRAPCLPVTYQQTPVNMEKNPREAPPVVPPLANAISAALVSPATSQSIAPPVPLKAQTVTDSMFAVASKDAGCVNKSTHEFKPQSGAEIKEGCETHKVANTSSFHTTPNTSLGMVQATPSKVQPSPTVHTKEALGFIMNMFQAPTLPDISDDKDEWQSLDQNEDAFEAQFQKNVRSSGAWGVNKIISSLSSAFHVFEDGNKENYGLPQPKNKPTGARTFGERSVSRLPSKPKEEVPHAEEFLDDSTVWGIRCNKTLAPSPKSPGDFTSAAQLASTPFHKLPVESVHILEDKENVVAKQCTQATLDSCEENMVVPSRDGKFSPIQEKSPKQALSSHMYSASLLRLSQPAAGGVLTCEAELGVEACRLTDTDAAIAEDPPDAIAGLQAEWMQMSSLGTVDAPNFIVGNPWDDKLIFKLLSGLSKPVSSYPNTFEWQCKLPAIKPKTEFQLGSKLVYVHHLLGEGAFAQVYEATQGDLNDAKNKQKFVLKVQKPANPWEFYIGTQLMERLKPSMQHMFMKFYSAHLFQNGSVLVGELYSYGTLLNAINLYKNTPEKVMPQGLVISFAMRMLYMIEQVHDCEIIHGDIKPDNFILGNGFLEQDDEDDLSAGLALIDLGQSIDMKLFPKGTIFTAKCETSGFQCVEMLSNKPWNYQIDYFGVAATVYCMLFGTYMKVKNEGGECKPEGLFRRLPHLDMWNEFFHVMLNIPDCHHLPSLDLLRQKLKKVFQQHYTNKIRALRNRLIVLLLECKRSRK
row,SMILES,IC50 [µM]
1,CCOc1cc(F)c(Cn2nc(-c3ncc(OCCSC)c(Nc4ccncc4)n3)c3ccccc32)c(F)c1,0.014
2,CCOc1cc(F)c(Cn2nc(-c3ncc(OCCOCCO)c(Nc4ccncc4)n3)c3ccccc32)c(F)c1,0.0074
3,COc1cnc(-c2nn(Cc3c(F)cc(F)cc3F)c3ccccc23)nc1N(Cc1c(F)cc(F)cc1F)c1ccncc1,0.89
4,COc1cnc(-c2nn(Cc3ccc(C#N)cc3F)c3ccccc23)nc1N(Cc1ccc(C#N)cc1F)c1ccncc1,1.1
5,COc1cnc(-c2nn(Cc3c(F)c(F)c(OCC(F)(F)F)c(F)c3F)c3ccccc23)nc1N(Cc1c(F)c(F)c(OCC(F)(F)F)c(F)c1F)c1ccncc1,3.2

# Source: ChEMBL document CHEMBL5726855, “Substituted benzylindazoles for use as Bub1 kinase inhibitors in the treatment of hyperproliferative diseases” (2019)
